Four molecules from ChEMBL document CHEMBL1150945, “New p-terphenyl and polyketide metabolites from the sclerotia of Penicillium raistrickii” (1998) can be followed below.

The source made the active and inactive calls. The calls are words filed in the database; no cut-off is given here.

For experiment [1], the system named is Candida albicans. The experiment is described as follows: Antifungal activity against Candida albicans ATCC 14053 at 200 ug/disk by standard disk assay. It counts as functional, organism-based.
Experiment [2] deals with Helicoverpa zea. Description: Insecticidal activity against corn ear worm larvae at 400 to 500 ppm relative to control. It counts as functional.
Experiment [3] relates to Carpophilus. Description: Antiinsectan activity against Carpophilus hemipterus assessed as reduction in feeding rate at 400 to 500 ppm relative to control. It counts as functional. Details: scale not given: the % may be the effect or the level left.
Experiment [4] concerns Helicoverpa zea. Description: Insecticidal activity against corn ear worm larvae at 500 ppm relative to control. It counts as functional.
Experiment [5] relates to Staphylococcus aureus. The experiment is described as follows: Antibacterial activity against Staphylococcus aureus ATCC 29213 at 200 ug/disk by standard disk assay. It counts as functional. As to conditions: read-out: IZ.
Experiment [6] relates to Bacillus subtilis. The experiment is described as follows: Antibacterial activity against Bacillus subtilis ATCC 6051 at 200 ug/disk by standard disk assay. To be noted: read-out: IZ. It counts as functional.

Regarding `COc1c(-c2ccc(O)c(O)c2)cc(O)c2c1oc1cc(O)c(O)cc12`, in experiment [1], the result was inactive.
As for `COC1=CC(=O)C[C@@H](C)[C@]12Oc1c(Cl)c(OC)cc(OC)c1C2=O` [GRISEOFULVIN], the Activity in experiment [2] was 70%; in experiment [3], 30%.
Turning to `COc1c(-c2ccc(O)c(O)c2)cc(O)c(-c2ccc(O)c(O)c2)c1O`, the Activity in experiment [4] amounted to 28%. Moreover, in experiment [5], the zone of inhibition at 200 µg/disc is 13 mm. Besides, in experiment [1], the result was inactive.
As for `Cc1cc(O)c(O)c2oc3cc(O)cc(O)c3c(=O)c12`, the zone of inhibition at 200 µg/disc was 11 mm in experiment [5] and 12 mm in experiment [6]. Further, the outcome in experiment [1] was inactive.
